Reference: US20200071361A1, “ENGINEERED ANTIMICROBIAL AMPHIPHILIC PEPTIDES AND METHODS OF USE” (priority 2017, published 2020)
Converted amounts (≈) assume the structure as drawn.

Columns and labels:
Experiment in all cases: Broth microdilution MIC, clinical isolate panel
Assay type in all cases: cell-based
[1] = test system: Pseudomonas aeruginosa isolates (n = 109); conditions: Pseudomonas aeruginosa
Protocol: (§1) Comparator antibiotics were supplied by Micromyx, and stock solutions were prepared on the first day of testing using solvents recommended by CLSI (1). Stock solutions of all compounds were made at 40× the final testing concentration and stored at −80° C. prior to testing. Information regarding compound source, catalog and lot number, testing concentrations and drug diluent for the comparators and test agent are detailed below in Table 3.
(§2) The test organisms evaluated in this study consisted of clinical isolates from the Micromyx Repository and reference isolates from the American Type Culture Collection (ATCC; Manassas, Va.). The clinical isolates were obtained from USA hospitals. Upon initial receipt at Micromyx, the organisms were sub-cultured onto an appropriate agar medium. Following incubation, colonies were harvested from these plates and cell suspensions prepared and frozen at −80° C. with a cryoprotectant. Prior to testing, the isolates were streaked from frozen vials onto Trypticase Soy Agar with 5% sheep blood (Becton Dickenson [BD]; Sparks, Md.; Lot Nos. 7173618, 7166759, 7208688, 72144895, 7228505 and Remel Lenexa, Kans. Lot No. 212574). Plates were incubated at 35° C. overnight.
(§3) Mueller Hinton II broth (MHB II; BD; Lot Nos. 6258541 and 7143896) was used for MIC testing of aerobic organisms.
(§4) MIC values were determined using a broth microdilution procedure described by CLSI (1, 3). Automated liquid handlers (Multidrop 384, Labsystems, Helsinki, Finland; Biomek 2000 and Biomek FX, Beckman Coulter, Fullerton Calif.) were used to conduct serial dilutions and liquid transfers.
(§5) To prepare the drug mother plates, which would provide the serial drug dilutions for the replicate daughter plates, the wells of columns 2-12 of standard 96-well microdilution plates (Costar 3795) were filled with 150 μl of the designated diluent for each row of drug. The test articles and comparator compounds (300 μl at 40× the highest concentration to be tested) were dispensed into the appropriate wells in column 1. The Biomek 2000 was then used to make 2-fold serial dilutions in the mother plates from column 1 through column 11. The wells of Column 12 contained no drug and served as the organism growth control wells for the assay.
(§6) The daughter plates were loaded with 185 μL per well of MHB II using the Multidrop 384. The daughter plates were completed on the Biomek FX instrument which transferred 5 µL of drug solution from each well of a mother plate to the corresponding well of each daughter plate in a single step. A standardized inoculum of each test organism was prepared per CLSI methods (1). The inoculum for each organism was dispensed into sterile reservoirs divided by length (Beckman Coulter), and the Biomek 2000 was used to inoculate the plates. Daughter plates were placed on the Biomek 2000 work surface in reverse orientation so that inoculation took place from low to high drug concentration.
(§7) Plates were stacked 3-4 high, covered with a lid on the top plate, placed in plastic bags, and incubated at 35° C. for 16 to 20 hrs. Following incubation, the microplates were removed from the incubator and viewed from the bottom using a plate viewer. […] The MIC was read and recorded as the lowest concentration of drug that inhibited visible growth of the organism.
(§8) Clinical breakpoints to determine percent resistance within a given organism group were obtained from CLSI (3), with the exception of colistin for K. pneumoniae, Enterobacter spp., and E. coli, which are only available from EUCAST.

[2] = test system: Acinetobacter spp. isolates (n = 104); conditions: Acinetobacter spp. (n = 104)
Protocol: as §1, §2, §3, §4, §5, §6, §7, §8

[3] = test system: Escherichia coli isolates (n = 101); conditions: Escherichia coli (n = 101)
Protocol: as §1, §2, §3, §4, §5, §6, §7, §8

[4] = test system: Klebsiella pneumoniae isolates (n = 101); conditions: Klebsiella pneumoniae (n = 101)
Protocol: as §1, §2, §3, §4, §5, §6, §7, §8

[5] = test system: Staphylococcus aureus isolates (n = 104); conditions: Staphylococcus aureus (n = 104), all methicillin-resistant
Protocol: as §1, §2, §3, §4, §5, §6, §7, §8

[6] = test system: Enterococcus faecium isolates (n = 104); conditions: Enterococcus faecium (n = 104)
Protocol: as §1, §2, §3, §4, §5, §6, §7, §8

Row | Structure (SMILES) | MIC50 [1] [µg/mL] | MIC ([1]; read-out: Mode (MIC)) [µg/mL] | MIC50 [2] [µg/mL] | MIC50 [3] [µg/mL] | MIC ([3]; read-out: Mode (MIC)) [µg/mL] | % R (percent of isolates resistant, clinical breakpoints) [4] | MIC50 [4] [µg/mL] | MIC50 [5] [µg/mL] | MIC50 [6] [µg/mL] | MIC90 [6] [µg/mL] | MIC ([6]; read-out: Mode (MIC)) [µg/mL] | MIC90 [5] [µg/mL] | MIC range [5] [µg/mL] | MIC ([5]; read-out: Mode (MIC)) [µg/mL]
1 | CC(C)(O/N=C(\C(=O)N[C@@H]1C(=O)N2C(C(=O)[O-])=C(C[n+]3ccccc3)CS[C@H]12)c1csc(N)n1)C(=O)O [Ceftazidime] | 4 (≈ 7.32 µM) | 2 (≈ 3.66 µM) | > 32 | 0.5 (≈ 0.915 µM) | 0.25 (≈ 0.457 µM) | Over 80% | > 32 | – | – | – | – | – | – | –
2 | CCC[C@@H]1C[C@@H](C(=O)N[C@@H]([C@H]2O[C@H](SC)[C@H](O)[C@@H](O)[C@H]2O)[C@H](C)Cl)N(C)C1 [Clindamycin] | – | – | – | – | – | – | – | 0.12 (≈ 0.282 µM) | – | – | – | – | – | –
3 | CCCCCCCCCC(=O)N[C@@H](Cc1c[nH]c2ccccc12)C(=O)N[C@H](CC(N)=O)C(=O)N[C@@H](CC(=O)O)C(=O)N[C@@H]1C(=O)NCC(=O)N[C@@H](CCCN)C(=O)N[C@@H](CC(=O)O)C(=O)N[C@H](C)C(=O)N[C@@H](CC(=O)O)C(=O)NCC(=O)N[C@H](CO)C(=O)N[C@@H]([C@H](C)CC(=O)O)C(=O)N[C@@H](CC(=O)c2ccccc2N)C(=O)O[C@@H]1C [Daptomycin] | – | – | – | – | – | – | – | 0.5 (≈ 0.309 µM) | 4 (≈ 2.47 µM) | 8 (≈ 4.94 µM) | 2 (≈ 1.23 µM) | 1 (≈ 0.617 µM) | 0.25 to 4 | 0.5 (≈ 0.309 µM)
